Assay [1] concerns the target Tyrosine-protein kinase JAK2 (Homo sapiens) (UniProt O60674). In words: Inhibition of JAK2 JH1 catalytic domain (unknown origin) at 10 uM relative to control.
Assay [2] has as its target Leucine-rich repeat serine/threonine-protein kinase 2 (Homo sapiens, UniProt Q5S007). In words: Inhibition of wild type LRRK2 (unknown origin) assessed as inhibition of LRRKtide phosphorylation after 120 mins by radiometric assay in presence of [gamma-33P]-ATP.
Assay [3] deals with Leucine-rich repeat serine/threonine-protein kinase 2 (Homo sapiens, UniProt Q5S007, G2019S). In words: Inhibition of LRRK2 G2019S mutant (unknown origin).

SMILES strings stand for the structures.

Usually inhibition stands for how much of the control response was suppressed. The IC50 is the concentration that inhibits the measured activity by half.

Sequence of Leucine-rich repeat serine/threonine-protein kinase 2 (Homo sapiens, UniProt Q5S007) (Q5S007 whole entry): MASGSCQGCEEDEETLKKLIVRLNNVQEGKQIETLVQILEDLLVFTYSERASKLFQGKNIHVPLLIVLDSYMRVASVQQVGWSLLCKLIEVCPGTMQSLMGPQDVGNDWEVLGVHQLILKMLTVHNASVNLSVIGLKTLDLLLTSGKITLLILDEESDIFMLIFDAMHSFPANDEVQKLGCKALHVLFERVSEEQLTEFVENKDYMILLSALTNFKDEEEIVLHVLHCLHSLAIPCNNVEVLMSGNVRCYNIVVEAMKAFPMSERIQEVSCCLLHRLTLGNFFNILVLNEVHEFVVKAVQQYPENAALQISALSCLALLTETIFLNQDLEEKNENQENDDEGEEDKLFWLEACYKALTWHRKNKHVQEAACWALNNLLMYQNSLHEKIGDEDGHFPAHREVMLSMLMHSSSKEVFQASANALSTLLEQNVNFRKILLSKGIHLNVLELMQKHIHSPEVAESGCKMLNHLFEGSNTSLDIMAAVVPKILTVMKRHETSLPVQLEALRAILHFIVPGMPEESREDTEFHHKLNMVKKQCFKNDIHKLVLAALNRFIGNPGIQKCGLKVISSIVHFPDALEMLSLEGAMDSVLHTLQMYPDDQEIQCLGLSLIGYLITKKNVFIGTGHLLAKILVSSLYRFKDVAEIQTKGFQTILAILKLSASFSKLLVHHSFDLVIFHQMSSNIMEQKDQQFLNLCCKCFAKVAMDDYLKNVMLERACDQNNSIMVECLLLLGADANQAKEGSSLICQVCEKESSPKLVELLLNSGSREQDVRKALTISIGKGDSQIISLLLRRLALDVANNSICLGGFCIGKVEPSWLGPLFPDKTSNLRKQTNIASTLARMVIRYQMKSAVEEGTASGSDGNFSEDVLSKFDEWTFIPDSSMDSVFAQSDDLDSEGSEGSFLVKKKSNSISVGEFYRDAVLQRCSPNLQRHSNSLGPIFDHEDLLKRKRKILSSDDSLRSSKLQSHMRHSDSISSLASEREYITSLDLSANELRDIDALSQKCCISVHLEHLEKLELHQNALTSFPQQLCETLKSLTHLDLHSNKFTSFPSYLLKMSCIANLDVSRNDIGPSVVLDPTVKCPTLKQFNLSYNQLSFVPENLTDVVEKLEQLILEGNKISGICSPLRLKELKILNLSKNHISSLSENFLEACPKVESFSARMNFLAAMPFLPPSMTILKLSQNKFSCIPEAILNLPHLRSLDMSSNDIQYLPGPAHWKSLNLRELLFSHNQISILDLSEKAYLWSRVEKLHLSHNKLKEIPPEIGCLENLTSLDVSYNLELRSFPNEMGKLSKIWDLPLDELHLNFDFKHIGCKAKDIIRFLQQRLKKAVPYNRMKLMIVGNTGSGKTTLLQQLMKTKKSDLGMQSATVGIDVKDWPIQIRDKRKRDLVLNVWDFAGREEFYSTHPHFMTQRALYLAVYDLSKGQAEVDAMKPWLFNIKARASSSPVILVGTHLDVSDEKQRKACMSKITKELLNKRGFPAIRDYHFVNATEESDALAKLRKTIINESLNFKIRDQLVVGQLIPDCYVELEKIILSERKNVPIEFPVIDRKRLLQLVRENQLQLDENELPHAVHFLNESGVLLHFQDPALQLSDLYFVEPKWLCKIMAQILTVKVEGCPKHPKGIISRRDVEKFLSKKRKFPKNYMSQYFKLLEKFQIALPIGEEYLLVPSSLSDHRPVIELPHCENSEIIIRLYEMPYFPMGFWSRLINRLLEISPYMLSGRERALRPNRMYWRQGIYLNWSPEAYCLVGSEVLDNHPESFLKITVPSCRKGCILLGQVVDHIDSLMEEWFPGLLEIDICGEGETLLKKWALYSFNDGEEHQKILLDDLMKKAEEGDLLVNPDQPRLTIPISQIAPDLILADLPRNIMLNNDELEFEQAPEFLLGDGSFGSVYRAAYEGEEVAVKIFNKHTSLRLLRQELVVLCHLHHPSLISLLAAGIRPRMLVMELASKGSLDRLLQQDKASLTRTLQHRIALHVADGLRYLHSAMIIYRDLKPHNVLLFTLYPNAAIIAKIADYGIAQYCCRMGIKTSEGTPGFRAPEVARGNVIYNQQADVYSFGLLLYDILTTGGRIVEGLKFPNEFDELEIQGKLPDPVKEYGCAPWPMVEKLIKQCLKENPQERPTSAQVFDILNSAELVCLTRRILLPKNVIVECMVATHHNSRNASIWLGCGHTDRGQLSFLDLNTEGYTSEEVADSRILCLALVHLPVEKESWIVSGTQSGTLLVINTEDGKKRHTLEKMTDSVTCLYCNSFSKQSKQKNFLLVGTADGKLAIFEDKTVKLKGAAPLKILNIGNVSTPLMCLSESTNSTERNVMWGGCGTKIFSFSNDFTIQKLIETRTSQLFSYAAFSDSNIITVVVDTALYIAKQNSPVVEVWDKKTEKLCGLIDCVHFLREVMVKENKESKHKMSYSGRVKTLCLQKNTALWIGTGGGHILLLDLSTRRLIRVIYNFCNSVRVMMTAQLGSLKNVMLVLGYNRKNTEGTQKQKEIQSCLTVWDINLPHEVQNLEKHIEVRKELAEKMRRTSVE
Sequence of Leucine-rich repeat serine/threonine-protein kinase 2 (Homo sapiens, UniProt Q5S007, G2019S) (Q5S007 whole entry G2019S): as the sequence (Q5S007 whole entry) above, with G2019S counted along it
Sequence of Tyrosine-protein kinase JAK2 (Homo sapiens) (O60674 whole entry, the tested form may be a part): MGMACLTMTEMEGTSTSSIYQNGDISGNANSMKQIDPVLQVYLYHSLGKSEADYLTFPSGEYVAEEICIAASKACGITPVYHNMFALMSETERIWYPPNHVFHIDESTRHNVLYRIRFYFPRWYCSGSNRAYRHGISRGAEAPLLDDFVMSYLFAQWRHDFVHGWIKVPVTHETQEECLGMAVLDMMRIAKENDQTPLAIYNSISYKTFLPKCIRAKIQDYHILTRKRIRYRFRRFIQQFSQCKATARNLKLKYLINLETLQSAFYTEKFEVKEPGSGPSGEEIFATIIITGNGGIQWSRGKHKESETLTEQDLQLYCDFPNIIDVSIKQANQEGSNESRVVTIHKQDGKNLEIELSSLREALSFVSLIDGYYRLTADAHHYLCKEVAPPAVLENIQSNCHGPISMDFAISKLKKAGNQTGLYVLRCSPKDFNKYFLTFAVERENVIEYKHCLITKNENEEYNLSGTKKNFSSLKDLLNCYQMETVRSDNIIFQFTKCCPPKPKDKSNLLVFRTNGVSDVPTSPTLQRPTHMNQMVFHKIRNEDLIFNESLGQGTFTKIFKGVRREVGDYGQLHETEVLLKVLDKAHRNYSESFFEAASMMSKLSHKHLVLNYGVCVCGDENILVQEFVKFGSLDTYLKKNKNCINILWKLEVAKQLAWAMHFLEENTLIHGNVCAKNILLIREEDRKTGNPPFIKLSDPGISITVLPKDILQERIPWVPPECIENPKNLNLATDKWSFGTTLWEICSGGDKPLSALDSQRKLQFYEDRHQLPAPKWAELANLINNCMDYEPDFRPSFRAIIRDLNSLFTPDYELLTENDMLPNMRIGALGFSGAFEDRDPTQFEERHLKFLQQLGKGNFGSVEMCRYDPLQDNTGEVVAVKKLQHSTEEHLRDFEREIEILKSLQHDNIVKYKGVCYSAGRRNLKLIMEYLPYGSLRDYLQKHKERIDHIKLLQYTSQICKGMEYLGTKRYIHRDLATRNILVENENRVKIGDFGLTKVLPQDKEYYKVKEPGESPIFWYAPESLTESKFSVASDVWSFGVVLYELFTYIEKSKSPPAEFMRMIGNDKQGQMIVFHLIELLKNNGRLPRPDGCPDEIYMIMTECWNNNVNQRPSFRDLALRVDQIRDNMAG

The molecule `N#Cc1ccc(Nc2ccc3[nH]c(=O)[nH]c3c2)c([N+](=O)[O-])c1` had an inhibition in assay [1] of 74%.
Turning to `O=C(NCCO)c1ccc(Nc2nc(-c3ccccc3)c3cc(Cl)ccc3n2)cc1`, the results for the concentration for half-maximal inhibition (IC50) in assay [2] and in assay [3] were 2.8 µM and 2 µM, respectively.
`CC(c1ccc(NC(=O)c2cc(C3CC3)[nH]n2)cc1)N1CCOCC1` (configuration not stated): the results for the 50% inhibitory concentration (IC50) in assay [2] and in assay [3] were 4.8 µM and 1.9 µM, respectively.
On to `Cc1ccc(NC(=O)c2ccc(CN3CCNCC3)cc2)cc1Nc1nccc(-c2cccnc2)n1`, for which the IC50 worked out at 4.6 µM in assay [2] and 3.3 µM in assay [3].
